Measurements reported in US5892026A, “High Trehalose content syrup” (Kabushiki Kaisha Hayashibara Seibutsu Kagaku Kenkyujo, priority 1995, dated 1999).
Converted amounts (≈) assume the structure as drawn. Like-named read-outs stand apart in the source and are kept apart here.

Assay: Water solubility of trehalose at ambient temperature (Experiment 1)
Type: physicochemical
Conditions: for solubility thermodynamic at 24 h: water
Method: The water solubility of trehalose at ambient temperature was studied by placing into a glass beaker 10 parts by weight of water and 20 parts by weight of hydrous crystalline trehalose, incubating the mixture under stirring conditions at 10°, 15°, 20°, 25°, 30° or 40° C. for 24 hours in an incubator, filtering the resulting mixture, measuring the trehalose concentration of the filtrate, and determining the water solubility of trehalose in an anhydrous form in 100 g water at each temperature.

For OC[C@H]1O[C@H](O[C@H]2O[C@H](CO)[C@@H](O)[C@H](O)[C@H]2O)[C@H](O)[C@@H](O)[C@@H]1O [Trehalose, α,α-trehalose], the “water solubility / crystallization of trehalose (in words)” value (ambient temperature) was “dissolves in water in a relatively low concentration and readily crystallizes at ambient temperature”, the solubility thermodynamic at 24 h (10 °C, anhydrous form, read-out: trehalose content (g) dissolved in 100 g water) was 553 mg/mL (≈ 1620 mM) and the solubility thermodynamic at 24 h (15 °C, anhydrous form, read-out: trehalose content (g) dissolved in 100 g water) was 618 mg/mL (≈ 1810 mM). The solubility thermodynamic at 24 h (20 °C, anhydrous form, read-out: trehalose content (g) dissolved in 100 g water) was 689 mg/mL (≈ 2010 mM), the solubility thermodynamic at 24 h (25 °C, anhydrous form, read-out: trehalose content (g) dissolved in 100 g water) was 773 mg/mL (≈ 2260 mM) and the solubility thermodynamic at 24 h (30 °C, anhydrous form, read-out: trehalose content (g) dissolved in 100 g water) was 866 mg/mL (≈ 2530 mM). It also gave a solubility thermodynamic at 24 h (40 °C, anhydrous form, read-out: trehalose content (g) dissolved in 100 g water) of 1090 mg/mL (≈ 3190 mM), a solubility thermodynamic at 24 h (saturated in water, 10 °C, read-out: trehalose concentration (w/w %)) of 356 mg/mL (≈ 1040 mM) and a solubility thermodynamic at 24 h (saturated in water, 15 °C, read-out: trehalose concentration (w/w %)) of 382 mg/mL (≈ 1120 mM). It also gave a solubility thermodynamic at 24 h (saturated in water, 20 °C, read-out: trehalose concentration (w/w %)) of 408 mg/mL (≈ 1190 mM), a solubility thermodynamic at 24 h (saturated in water, 25 °C, read-out: trehalose concentration (w/w %)) of 436 mg/mL (≈ 1270 mM) and a solubility thermodynamic at 24 h (saturated in water, 30 °C, read-out: trehalose concentration (w/w %)) of 464 mg/mL (≈ 1360 mM). The solubility thermodynamic at 24 h (saturated in water, 40 °C, read-out: trehalose concentration (w/w %)) was 522 mg/mL (≈ 1520 mM).
